From ChEMBL document CHEMBL2203256, “Design and evaluation of azaindole-substituted N-hydroxypyridones as glyoxalase I inhibitors” (Bioorg Med Chem Lett, 2012)

Experiments:
[1] = Half life in mouse serum at […]; assay type: ADME, cell-free
[2] = tested on: Liver microsomes; assay: Clearance in human liver microsomes assessed per mg of protein at 1 uM after 30 mins in presence of NADPH; assay type: ADME, Microsome; settings: 0.5 h
[3] = tested on: Liver microsomes; assay: Clearance in human liver microsomes assessed per mg of protein at 1 uM after 30 mins in absence of NADPH; assay type: ADME, Microsome; settings: 0.5 h
[4] = Half life in human serum at […]; assay type: ADME, cell-free
[5] = tested on: Liver; assay: Clearance in mouse liver microsomes assessed per mg of protein at 1 uM after 30 mins in presence of NADPH; assay type: ADME, Microsome; settings: 0.5 h
[6] = tested on: Liver; assay: Clearance in mouse liver microsomes assessed per mg of protein at 1 uM after 30 mins in absence of NADPH; assay type: ADME, Microsome; settings: 0.5 h
[7] = molecular target: Lactoylglutathione lyase (Homo sapiens, UniProt Q04760); assay: Inhibition of human recombinant GLO1 expressed in Escherichia coli BL21 assessed as decrease in reduced glutathione level after 1 hr by Ellman's method
Lactoylglutathione lyase, sequence (Q04760 whole entry): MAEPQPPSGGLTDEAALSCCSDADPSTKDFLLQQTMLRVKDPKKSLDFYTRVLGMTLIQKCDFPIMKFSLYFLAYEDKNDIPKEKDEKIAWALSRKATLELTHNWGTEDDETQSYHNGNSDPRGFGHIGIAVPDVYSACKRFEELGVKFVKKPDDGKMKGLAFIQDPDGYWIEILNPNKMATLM

IC50 [7]	Structure (SMILES)	other results
1190 nM	O=c1cc(-c2ccccc2)cc(-c2ccccc2)n1O	half-life [1]: 7.33 h; CLint [2]: 16 µL/min/mg; CLint [3]: 6.6 µL/min/mg; half-life [4]: 48.3 h; CLint [5]: 28 µL/min/mg; CLint [6]: 6.8 µL/min/mg
260 nM	COCCn1ccc2cc(-c3cc(-c4ccccc4)cc(=O)n3O)ccc21	
300 nM	COCCCn1ccc2cc(-c3cc(-c4ccccc4)cc(=O)n3O)ccc21	
300 nM	CCCCn1ccc2cc(-c3cc(-c4ccccc4)cc(=O)n3O)cnc21	
510 nM	CCCCCn1ccc2cc(-c3cc(-c4ccccc4)cc(=O)n3O)cnc21	
1520 nM	O=c1cc(-c2ccsc2)cc(-c2ccccc2)n1O	
8280 nM	O=c1cc(-c2cccnc2)cc(-c2ccccc2)n1O	
8130 nM	O=c1cc(-c2ccc(C(F)(F)F)cc2)cc(-c2ccccc2)n1O	
8400 nM	O=c1cc(-c2ccc(-c3ccccc3)cc2)cc(-c2ccccc2)n1O	
> 10000 nM	CCC#Cc1cc(-c2ccccc2)n(O)c(=O)c1	
> 10000 nM	CCCCc1cc(-c2ccccc2)n(O)c(=O)c1	
280 nM	O=c1cc(-c2ccccc2)cc(-c2cnc3[nH]ccc3c2)n1O	
250 nM	O=c1cc(-c2ccccc2)cc(-c2ccc3[nH]ccc3c2)n1O	
40 nM	NC(=O)c1cccc(Cn2ccc3cc(-c4cc(-c5ccccc5)cc(=O)n4O)cnc32)c1	
480 nM	NC(=O)c1cccc(Cn2ccc3cc(-c4cc(-c5ccccc5)cc(=O)n4O)ccc32)c1	
14 nM	COCCn1ccc2cc(-c3cc(-c4ccccc4)cc(=O)n3O)cnc21	
